Laboratory results as given in ChEMBL document CHEMBL5154811, “Discovery of SPH5030, a Selective, Potent, and Irreversible Tyrosine Kinase Inhibitor for HER2-Amplified and HER2-Mutant Cancer Treatment” (J Med Chem, 2022).

Experiments:
[1] = molecular target: Epidermal growth factor receptor (Homo sapiens, UniProt P00533); test: Inhibition of wild type human N-terminal GST tagged EGFR (669 to 1210 residues) expressed in Sf21 insect cells incubated for 30 mins in presence of ATP by HTRF analysis
[2] = Toxicity in BALB/c nude mouse xenografted with human NCI-N87 cells assessed as mortality at 5 to 40 mg/kg, po administered once daily for 21 days; type: organism-based; conditions: in vivo, 504 h, dose 5-40 mg/kg, time 21 day
[3] = Metabolic stability in human liver microsomes assessed as half life at 1 uM preincubated for 5 mins followed by NADPH addition by LC-MS/MS analysis; type: ADME, Microsome
[4] = Clearance in Sprague-Dawley rat at 3 mg/kg, iv measured upto 1440 mins by LC/MS/MS analysis; type: ADME, organism-based; conditions: in vivo
[5] = Clearance in cynomolgus monkey at 1 mg/kg, iv measured upto 1440 mins by LC/MS/MS analysis; type: ADME, organism-based, Macaca fascicularis; conditions: in vivo
[6] = Volume of distribution at steady state in ICR mouse at 3 mg/kg, iv measured upto 1440 mins by LC/MS/MS analysis; type: ADME, organism-based; conditions: in vivo, read-out: Vdss
[7] = Tmax in ICR mouse at 10 mg/kg, po measured upto 1440 mins by LC/MS/MS analysis; type: ADME, organism-based; conditions: in vivo
[8] = Half life in ICR mouse at 10 mg/kg, po measured upto 1440 mins by LC/MS/MS analysis; type: ADME, organism-based; conditions: in vivo
[9] = Half life in Sprague-Dawley rat at 3 mg/kg, iv measured upto 1440 mins by LC/MS/MS analysis; type: ADME, organism-based; conditions: in vivo
[10] = Cmax in Sprague-Dawley rat at 10 mg/kg, po measured upto 1440 mins by LC/MS/MS analysis; type: ADME, organism-based; set-up: time < 1440 min, dose 10 mg/kg, route po; conditions: in vivo
[11] = Tmax in Sprague-Dawley rat at 10 mg/kg, po measured upto 1440 mins by LC/MS/MS analysis; type: ADME, organism-based; conditions: in vivo
[12] = AUC (0 to t) in Sprague-Dawley rat at 10 mg/kg, po measured upto 1440 mins by LC/MS/MS analysis; type: ADME, organism-based; set-up: dose 10 mg/kg, time < 1440 min, route po; conditions: in vivo
[13] = Volume of distribution at steady state in cynomolgus monkey at 1 mg/kg, iv measured upto 1440 mins by LC/MS/MS analysis; type: ADME, organism-based, Macaca fascicularis; conditions: in vivo, read-out: Vdss
[14] = Tmax in cynomolgus monkey at 15 mg/kg, po measured upto 1440 mins by LC/MS/MS analysis; type: ADME, organism-based, Macaca fascicularis; conditions: in vivo
[15] = Half life in cynomolgus monkey at 15 mg/kg, po measured upto 1440 mins by LC/MS/MS analysis; type: ADME, organism-based, Macaca fascicularis; conditions: in vivo
COLO-678 = test: Antiproliferative activity against human COLO-678 cells assessed as cell growth inhibition incubated for 72 hrs by Celltiter-Glo assay; type: functional, cell-based; conditions: COLO-678, 72 h
[16] = Antiproliferative activity against human KM12-Luc cells assessed as cell growth inhibition incubated for 72 hrs by Celltiter-Glo assay; type: functional, cell-based
[17] = molecular target: Receptor tyrosine-protein kinase erbB-2 (Homo sapiens, UniProt P04626, D769H); test: Inhibition of HER2 D769H mutant (unknown origin) incubated for 120 mins in presence of 33P-ATP by P81 ion exchange cellulose chromatography
Chain of Receptor tyrosine-protein kinase erbB-2 (Homo sapiens, UniProt P04626, D769H) (P04626 23-1255 D769H limits assumed): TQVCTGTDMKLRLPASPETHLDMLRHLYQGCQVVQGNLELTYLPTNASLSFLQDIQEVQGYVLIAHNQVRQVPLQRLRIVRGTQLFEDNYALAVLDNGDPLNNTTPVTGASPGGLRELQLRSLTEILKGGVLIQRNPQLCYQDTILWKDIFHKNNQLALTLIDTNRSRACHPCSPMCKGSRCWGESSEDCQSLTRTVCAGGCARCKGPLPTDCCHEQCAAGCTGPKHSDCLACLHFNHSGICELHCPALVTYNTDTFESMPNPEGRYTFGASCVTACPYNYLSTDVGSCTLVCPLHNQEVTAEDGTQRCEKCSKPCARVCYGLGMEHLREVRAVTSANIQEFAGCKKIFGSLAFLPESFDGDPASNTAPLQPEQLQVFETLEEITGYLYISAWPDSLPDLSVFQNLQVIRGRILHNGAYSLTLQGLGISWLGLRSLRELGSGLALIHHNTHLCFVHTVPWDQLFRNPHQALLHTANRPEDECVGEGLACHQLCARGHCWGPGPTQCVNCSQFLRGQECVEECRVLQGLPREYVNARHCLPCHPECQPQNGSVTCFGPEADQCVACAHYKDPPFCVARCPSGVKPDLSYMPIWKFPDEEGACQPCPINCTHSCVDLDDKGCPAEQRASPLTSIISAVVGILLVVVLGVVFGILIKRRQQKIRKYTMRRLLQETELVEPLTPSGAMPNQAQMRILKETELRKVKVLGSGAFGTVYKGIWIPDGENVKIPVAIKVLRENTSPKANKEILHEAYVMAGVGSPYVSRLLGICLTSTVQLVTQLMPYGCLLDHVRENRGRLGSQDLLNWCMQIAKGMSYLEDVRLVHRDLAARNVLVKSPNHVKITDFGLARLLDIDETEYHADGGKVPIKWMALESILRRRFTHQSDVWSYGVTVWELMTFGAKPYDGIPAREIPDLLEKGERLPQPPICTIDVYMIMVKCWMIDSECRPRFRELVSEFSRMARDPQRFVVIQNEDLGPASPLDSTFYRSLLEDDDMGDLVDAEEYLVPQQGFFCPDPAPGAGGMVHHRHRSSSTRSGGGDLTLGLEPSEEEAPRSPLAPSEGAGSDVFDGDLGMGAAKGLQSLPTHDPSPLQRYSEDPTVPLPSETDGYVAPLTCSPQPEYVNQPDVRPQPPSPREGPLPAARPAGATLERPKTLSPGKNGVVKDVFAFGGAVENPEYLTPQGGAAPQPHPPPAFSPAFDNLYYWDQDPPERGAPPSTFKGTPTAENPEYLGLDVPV

[18] = molecular target: Receptor tyrosine-protein kinase erbB-2 (Homo sapiens, UniProt P04626, D769Y); test: Inhibition of HER2 D769Y mutant (unknown origin) incubated for 120 mins in presence of 33P-ATP by P81 ion exchange cellulose chromatography
Chain of Receptor tyrosine-protein kinase erbB-2 (Homo sapiens, UniProt P04626, D769Y) (P04626 23-1255 D769Y limits assumed): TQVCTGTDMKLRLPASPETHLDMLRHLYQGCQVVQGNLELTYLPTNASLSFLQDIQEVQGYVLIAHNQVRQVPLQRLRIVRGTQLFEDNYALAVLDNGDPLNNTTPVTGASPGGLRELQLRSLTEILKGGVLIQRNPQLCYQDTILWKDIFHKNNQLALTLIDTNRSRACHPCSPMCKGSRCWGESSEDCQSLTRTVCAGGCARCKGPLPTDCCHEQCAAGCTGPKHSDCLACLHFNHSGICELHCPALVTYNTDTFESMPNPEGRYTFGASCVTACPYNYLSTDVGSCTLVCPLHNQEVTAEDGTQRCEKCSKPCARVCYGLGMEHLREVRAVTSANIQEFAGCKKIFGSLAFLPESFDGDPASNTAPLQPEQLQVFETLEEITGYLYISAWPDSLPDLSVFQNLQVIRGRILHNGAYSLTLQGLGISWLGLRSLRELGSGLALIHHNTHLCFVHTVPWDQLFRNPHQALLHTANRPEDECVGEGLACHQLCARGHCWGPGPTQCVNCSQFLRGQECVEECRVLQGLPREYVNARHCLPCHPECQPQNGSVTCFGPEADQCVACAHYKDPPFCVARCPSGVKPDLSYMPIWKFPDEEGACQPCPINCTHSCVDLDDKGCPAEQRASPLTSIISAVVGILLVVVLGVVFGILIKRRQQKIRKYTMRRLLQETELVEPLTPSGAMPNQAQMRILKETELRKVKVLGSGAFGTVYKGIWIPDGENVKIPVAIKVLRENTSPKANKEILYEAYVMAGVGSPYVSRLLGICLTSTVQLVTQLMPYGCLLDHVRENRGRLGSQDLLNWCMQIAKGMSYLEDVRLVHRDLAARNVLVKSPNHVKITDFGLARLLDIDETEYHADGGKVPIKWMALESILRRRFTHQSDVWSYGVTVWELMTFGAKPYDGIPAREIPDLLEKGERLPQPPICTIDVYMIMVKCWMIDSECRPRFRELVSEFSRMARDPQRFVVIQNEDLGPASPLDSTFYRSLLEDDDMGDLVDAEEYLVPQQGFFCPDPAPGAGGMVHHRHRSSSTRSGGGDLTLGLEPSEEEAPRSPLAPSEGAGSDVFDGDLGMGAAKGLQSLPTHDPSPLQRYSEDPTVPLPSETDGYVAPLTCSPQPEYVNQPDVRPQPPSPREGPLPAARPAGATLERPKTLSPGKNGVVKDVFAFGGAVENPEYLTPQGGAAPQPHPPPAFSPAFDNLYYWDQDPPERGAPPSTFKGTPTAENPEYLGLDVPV

[19] = molecular target: Receptor tyrosine-protein kinase erbB-2 (Homo sapiens, UniProt P04626, R896C); test: Inhibition of HER2 R896C mutant (unknown origin) incubated for 120 mins in presence of 33P-ATP by P81 ion exchange cellulose chromatography
Chain of Receptor tyrosine-protein kinase erbB-2 (Homo sapiens, UniProt P04626, R896C) (P04626 23-1255 R896C limits assumed): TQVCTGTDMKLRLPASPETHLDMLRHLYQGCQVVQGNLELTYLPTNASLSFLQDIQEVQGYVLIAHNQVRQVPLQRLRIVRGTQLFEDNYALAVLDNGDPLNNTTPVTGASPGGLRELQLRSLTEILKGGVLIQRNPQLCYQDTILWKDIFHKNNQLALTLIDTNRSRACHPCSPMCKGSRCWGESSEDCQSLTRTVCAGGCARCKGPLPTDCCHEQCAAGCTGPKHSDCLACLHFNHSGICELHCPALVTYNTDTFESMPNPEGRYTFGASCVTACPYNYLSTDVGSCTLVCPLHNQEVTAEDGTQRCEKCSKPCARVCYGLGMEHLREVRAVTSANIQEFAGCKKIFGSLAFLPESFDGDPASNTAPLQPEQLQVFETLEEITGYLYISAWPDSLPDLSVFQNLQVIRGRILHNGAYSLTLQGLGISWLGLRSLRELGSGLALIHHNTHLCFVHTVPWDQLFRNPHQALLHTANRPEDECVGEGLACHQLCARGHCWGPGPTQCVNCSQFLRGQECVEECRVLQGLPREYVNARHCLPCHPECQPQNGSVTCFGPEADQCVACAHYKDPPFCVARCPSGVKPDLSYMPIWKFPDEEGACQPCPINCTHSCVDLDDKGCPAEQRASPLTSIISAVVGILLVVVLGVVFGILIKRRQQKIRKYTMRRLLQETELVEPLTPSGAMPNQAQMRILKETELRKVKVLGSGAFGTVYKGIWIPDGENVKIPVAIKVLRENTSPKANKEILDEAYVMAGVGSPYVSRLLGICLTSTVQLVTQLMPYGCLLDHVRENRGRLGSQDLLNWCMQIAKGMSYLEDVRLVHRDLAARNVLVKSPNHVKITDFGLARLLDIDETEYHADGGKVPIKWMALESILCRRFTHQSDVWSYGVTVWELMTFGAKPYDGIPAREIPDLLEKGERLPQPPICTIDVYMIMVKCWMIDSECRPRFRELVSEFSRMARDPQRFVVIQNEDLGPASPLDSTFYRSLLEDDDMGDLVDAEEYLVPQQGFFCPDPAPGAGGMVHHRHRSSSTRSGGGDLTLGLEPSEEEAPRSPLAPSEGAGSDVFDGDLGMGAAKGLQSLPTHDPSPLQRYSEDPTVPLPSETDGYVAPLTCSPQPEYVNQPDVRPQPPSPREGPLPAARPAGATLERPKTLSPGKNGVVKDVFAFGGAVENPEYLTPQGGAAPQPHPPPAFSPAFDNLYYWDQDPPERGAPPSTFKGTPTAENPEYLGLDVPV

NCI-N87 [20] = test: Antitumor activity against human NCI-N87 cells xenografted in BALB/c nude mouse assessed as tumor growth inhibition at 20 mg/kg/day, po administered once daily for 21 days relative to control; type: functional; conditions: NCI-N87, 504 h, time 21 day, read-out: TGI
BT-474 [21] = test: Antitumor activity against human BT-474 cells xenografted in BALB/c nude mouse assessed as tumor growth inhibition by measuring relative tumor growth at 5 mg/kg/day, po administered once daily for 21 days by caliper method relative to control; type: functional; conditions: time 21 day
BT-474 [22] = test: Antitumor activity against human BT-474 cells xenografted in BALB/c nude mouse assessed as tumor growth inhibition by measuring relative tumor growth at 10 mg/kg/day, po administered once daily for 21 days by caliper method relative to control; type: functional; conditions: time 21 day
BT-474 [23] = test: Antitumor activity against human BT-474 cells xenografted in BALB/c nude mouse assessed as tumor growth inhibition by measuring relative tumor growth at 20 mg/kg/day, po administered once daily for 21 days by caliper method relative to control; type: functional; conditions: time 21 day
[24] = Toxicity in BALB/c nude mouse xenografted with human BT-474 cells assessed as mortality at 5 to 40 mg/kg, po administered once daily for 21 days; type: organism-based; conditions: in vivo, 504 h, dose 5-40 mg/kg, time 21 day
BaF3 [25] = test: Antitumor activity against mouse BaF3 cells harbouring HER2 A775_G776insYVMA mutant xenografted in BALB/c nude mouse assessed as tumor growth inhibition at 20 mg/kg, po qd measured for 13 days relative to control; type: functional; conditions: BaF3, 312 h, time 13 day, read-out: TGI
BaF3 [26] = test: Antitumor activity against mouse BaF3 cells harbouring HER2 A775_G776insYVMA mutant xenografted in BALB/c nude mouse assessed as tumor growth inhibition by measuring relative tumor growth at 10 mg/kg, po qd for 13 days by caliper method relative to control; type: functional; conditions: time 13 day
[27] = Toxicity in BALB/c nude mouse xenografted with mouse BaF3 cells harbouring HER2 A775_G776insYVMA mutant assessed as mortality at 10 to 40 mg/kg, po qd for 13 days; type: organism-based; conditions: in vivo, 312 h, dose 10-40 mg/kg, time 13 day
NCI-N87 [28] = test: Antitumor activity against human NCI-N87 cells xenografted in BALB/c nude mouse assessed as tumor growth inhibition at 10 mg/kg/day, po administered once daily for 21 days relative to control; type: functional; conditions: NCI-N87, 504 h, time 21 day, read-out: TGI

Chain of Epidermal growth factor receptor (P00533 whole entry, the tested form may be a part): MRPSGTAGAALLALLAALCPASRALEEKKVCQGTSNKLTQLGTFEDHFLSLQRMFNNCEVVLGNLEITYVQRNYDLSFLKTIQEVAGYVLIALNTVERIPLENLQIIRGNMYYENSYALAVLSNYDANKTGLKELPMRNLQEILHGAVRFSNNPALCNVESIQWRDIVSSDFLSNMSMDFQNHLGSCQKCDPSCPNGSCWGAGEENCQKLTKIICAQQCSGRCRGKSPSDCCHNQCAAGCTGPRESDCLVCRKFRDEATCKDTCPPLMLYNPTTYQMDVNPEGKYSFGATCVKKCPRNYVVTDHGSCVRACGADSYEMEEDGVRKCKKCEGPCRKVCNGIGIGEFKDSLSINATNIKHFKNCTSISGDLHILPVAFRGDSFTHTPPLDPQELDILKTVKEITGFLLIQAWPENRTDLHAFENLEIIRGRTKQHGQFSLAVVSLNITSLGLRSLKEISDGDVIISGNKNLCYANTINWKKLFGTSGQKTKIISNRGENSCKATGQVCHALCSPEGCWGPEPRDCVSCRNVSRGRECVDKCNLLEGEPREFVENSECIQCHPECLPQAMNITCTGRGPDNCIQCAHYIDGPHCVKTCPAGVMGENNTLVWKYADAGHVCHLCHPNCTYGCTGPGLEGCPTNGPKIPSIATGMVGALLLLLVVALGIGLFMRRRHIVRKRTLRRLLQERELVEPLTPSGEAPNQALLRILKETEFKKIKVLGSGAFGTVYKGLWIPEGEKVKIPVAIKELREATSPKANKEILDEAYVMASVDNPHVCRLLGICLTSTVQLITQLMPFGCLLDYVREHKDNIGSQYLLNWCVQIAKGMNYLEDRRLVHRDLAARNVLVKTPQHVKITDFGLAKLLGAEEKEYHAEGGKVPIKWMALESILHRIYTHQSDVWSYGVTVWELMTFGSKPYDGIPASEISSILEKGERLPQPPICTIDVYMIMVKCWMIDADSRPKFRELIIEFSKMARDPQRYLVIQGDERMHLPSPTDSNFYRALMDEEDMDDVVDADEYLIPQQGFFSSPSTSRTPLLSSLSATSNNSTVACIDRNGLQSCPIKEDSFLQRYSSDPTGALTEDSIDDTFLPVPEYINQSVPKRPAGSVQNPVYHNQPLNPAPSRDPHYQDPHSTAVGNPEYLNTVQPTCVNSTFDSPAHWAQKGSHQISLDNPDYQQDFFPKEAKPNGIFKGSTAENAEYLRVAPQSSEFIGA

For `CCOc1cc2ncnc(Nc3ccc(Oc4cc5nncn5cn4)c(C)c3)c2cc1NC(=O)/C(F)=C/[C@H]1CCCN1C`, the IC50 [1] was 8.13 nM, the Activity [2] was “Non-Toxic” and the half-life at 1 µM [3] was 9.24 h. The clearance [4] was 13 mL/min/kg, the clearance [5] was 10.2 mL/min/kg and the Vd [6] was 2.96 L/kg. It also gave a Tmax [7] of 2.67 h, a half-life [8] of 3.6 h and a half-life [9] of 4.56 h. The Cmax [10] was 760 ng/mL, the Tmax [11] was 3.33 h and the AUC(0-t) at 24 h [12] was 5470 ng·h/mL. It also gave a Vd [13] of 3.71 L/kg, a Tmax [14] of 7.5 h and a half-life [15] of 5.63 h. It also gave an IC50 (COLO-678) of 6070 nM, an IC50 [16] of 3600 nM and an IC50 [17] of 0.42 nM. The IC50 [18] was 0.43 nM, the IC50 [19] was 0.56 nM and the inhibition in vivo at 20 mg/kg/day (NCI-N87 [20]) was 114%. For the same molecule, the T/C (BT-474 [21]) was 17.68%, the T/C (BT-474 [22]) was 8.31% and the T/C (BT-474 [23]) was 7.68%. The Activity [24] was “Non-Toxic”, the inhibition in vivo at 20 mg/kg (BaF3 [25]) was 107% and the T/C (BaF3 [26]) was 16.66%. For the same molecule, the Activity [27] was “Non-Toxic” and the inhibition in vivo at 10 mg/kg/day (NCI-N87 [28]) was 113%.
